Where two headings read alike, the source gives them in different places.
What was measured:
human MCH receptor = molecular target: T1, human MCH receptor (Homo sapiens, UniProt Q99705); test: hMCH FLIPR calcium mobilization assay; type: cell-based; conditions: read-out: Ki in the hMCH FLIPR assay
T1 construct: expressed in transfected cells

[1] = molecular target: T2, rat MCH 1 receptor (rMCH1R) (Rattus norvegicus, UniProt P97639); test: 125I-MCH ligand binding assay, rMCH; conditions: HEK 293 membranes, 0.2 nM 125I native-MCH, read-out: IC50 in the rMCH binding assay
T2 construct: expressed in transfected cells; host or cells: HEK 293 (membranes)
T2 sequence (P97639 whole entry): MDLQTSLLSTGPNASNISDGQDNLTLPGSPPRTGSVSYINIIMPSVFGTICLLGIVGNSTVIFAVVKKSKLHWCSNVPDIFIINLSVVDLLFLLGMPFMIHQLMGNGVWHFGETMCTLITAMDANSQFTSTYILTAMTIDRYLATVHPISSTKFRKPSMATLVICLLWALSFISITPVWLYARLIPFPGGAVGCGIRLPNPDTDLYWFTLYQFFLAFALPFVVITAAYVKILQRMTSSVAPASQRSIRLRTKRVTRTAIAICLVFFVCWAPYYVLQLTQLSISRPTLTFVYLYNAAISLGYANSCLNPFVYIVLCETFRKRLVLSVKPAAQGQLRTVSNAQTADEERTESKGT
Procedure, shortened: (§1)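 HEK293 membranes expressing rat or human MCH1R (100 µg tissue) were incubated for 90 min at 30 °C with 0.2 nM 125I-native-MCH and test compound in HEPES/MgCl2/BSA buffer with protease inhibitors, pH 7.4. Non-specific binding used 1 µM cold MCH. Filter-bound radioactivity gave IC50 by nonlinear regression.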

[2] = molecular target: T3, human MCH 1 receptor (hMCH1R) (Homo sapiens, UniProt Q99705); test: 125I-MCH ligand binding assay, hMCH; conditions: HEK 293 membranes, 0.2 nM 125I native-MCH, read-out: IC50 in the hMCH binding assay
T3 construct: expressed in transfected cells; host or cells: HEK 293 (membranes)
T3 sequence (Q99705 whole entry): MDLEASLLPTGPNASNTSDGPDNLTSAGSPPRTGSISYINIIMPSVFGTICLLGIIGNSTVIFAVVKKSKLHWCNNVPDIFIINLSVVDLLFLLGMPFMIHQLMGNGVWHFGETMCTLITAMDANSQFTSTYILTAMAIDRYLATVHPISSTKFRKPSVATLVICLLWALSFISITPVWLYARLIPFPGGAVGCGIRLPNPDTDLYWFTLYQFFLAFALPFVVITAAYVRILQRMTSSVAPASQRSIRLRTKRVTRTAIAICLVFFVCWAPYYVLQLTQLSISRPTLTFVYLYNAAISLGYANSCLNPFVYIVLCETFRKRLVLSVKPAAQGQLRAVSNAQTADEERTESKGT
Procedure, shortened: as §1

rat MCH1 receptor [3] = molecular target: T4, rat MCH1 receptor (Rattus norvegicus, UniProt P97639); test: HT-PS100 calcium mobilization functional assay; type: cell-based; set-up: expressed in transfected cells; conditions: HEK 293 cells stably transfected with rat MCH1 receptor; 100 nM or less list; read-out: Ki in the HT-PS100 assay
T4 sequence (P97639 whole entry): as the sequence (P97639 whole entry) above

rat MCH1 receptor [4] = molecular target: T4, rat MCH1 receptor; test: rMCH FLIPR calcium mobilization assay (CHOK1-Gqi cells); type: cell-based; set-up: expressed in transfected cells; host or cells: CHOK1-Gqi; conditions: CHOK1-Gqi cells, rat MCH1 receptor, read-out: Ki in the rMCH FLIPR assay
Description: Pharmacological analyses were conducted using either a HT-PS100 device (Axiom Biotechnologies, San Diego, Calif.), which provides high-resolution dose-response fluorometric measurements of [Ca^++]i mobilization, or using a FLIPR® device (Molecular Devices, Sunnyvale, Calif.).
Materials: Pharmacological analysis was conducted using a FLIPR® device (Molecular Devices, Sunnyvale, Calif.). CHOK1-Gqi cells were stably transfected with the rat MCH1 receptor and maintained under G418 antibiotic pressure. FLIPR® assay buffer consisted of phenol red-free DMEM+2.5 mM probenecid. […]. Test compounds were prepared as 10 mM stocks in 100% DMSO and diluted to a top end working concentration of 10 μM in 96 well black, flat bottom, collagen-I coated plates (Becton Dickinson, Bedford, Mass.).
Methods: CHOK1-Gqi cells stably expressing MCH1R were maintained in Dulbeco's modified Eagle's medium (GIBCO/Life Technologies, Rockville, Md.) supplemented with 2 mM glutamine and 10% dialyzed fetal bovine serum (HyCLone, Logan, Utah) at 37° C., 5% CO2. Cells were harvested by 10′ treatment with Versene (GIBCO/Life Technologies) followed by trituration, washing twice with cold (4° C.) hybridoma medium (Serum/Protein free, with L-glutamine, sodium bicarbonate, MOPS buffer) (Sigma-Aldrich Corp, St. Louis, Mo.) and replated onto 96 well black, flat bottom, collagen-I coated plates to a density of 10,000 cells/well. The cells were then loaded with the fluorescent calcium indicator Fura-2 (Molecular Probes, Eugene, Oreg.) at 1.6 μM for 60′ at room temperature. The loaded cells were then washed twice with 90 μl/well of wash buffer (1×HBSS, 20 mM HEPES, 2.5 mM probenecid).
Receptor-stimulated intracellular calcium responses were detected using FLIPR® by monitoring increases in the Fura-2 fluorescence response.
Test compounds were screened for MCH1R activity in the FLIPR® for both agonist and antagonist action. Agonist mode challenges were conducted at a maximum gradient concentration of 1 μM. Antagonist activity was tested by 10 min pre-incubation of cells at a compound concentration of defined to be 300× the EC50 of MCH (typically 1 μM), with subsequent introduction of MCH at a concentration 5-fold of EC50 as determined in preliminary experiments. […].
Several fixed concentrations of antagonist compounds were prepared in 10-fold increments, and presented to the cells in a gradient of increasing MCH concentration. Values for compound pA2 were calculated by linear regression of MCH EC50s as a function of antagonist concentration.

T1 sequence (Q99705 whole entry): as the sequence (Q99705 whole entry) above

Structure (SMILES)	Ki (human MCH receptor; 100 nM or less list) [µM]	Ki (human MCH receptor; 100 μM or less list) [µM]	IC50 ([1]; 100 μM or less list) [µM]	IC50 ([2]; 100 nM or less list) [µM]	IC50 ([2]; 100 μM or less list) [µM]	Ki (rat MCH1 receptor [3]) [µM]	Ki (rat MCH1 receptor [4]; 100 μM or less list) [µM]	IC50 ([1]; 100 nM or less list) [µM]	Ki (rat MCH1 receptor [4]; 100 nM or less list) [µM]
Cc1cccc(C)c1-n1nnnc1[C@H](c1cccs1)N1CCN(C/C=C/c2ccccc2)CC1 (racemic) [Compound 53, 1-{[1-(2,6-dimethyiphenyl)-1H-tetrazol-5-yl]thiophen-2-ylmethyl}-4-(3-phenylallyl)piperazine]	≤ 0.1	≤ 100	≤ 100	–	≤ 100	≤ 0.1	≤ 100	–	–
Cc1cccc(C)c1-n1nnnc1[C@H](c1cccc(C(F)(F)F)c1)N1CCN(C/C=C/c2ccccc2)CC1 (racemic) [Compound 56, 1-[[1-(2,6-dimethyiphenyl)-1H-tetrazol-5-yl]-(3-trifluoromethyiphenyl)methyl]-4-(3-phenylallyl)piperazine]	≤ 0.1	≤ 100	≤ 100	≤ 0.1	≤ 100	≤ 0.1	≤ 100	≤ 0.1	≤ 0.1
Cc1cccc(C)c1-n1nnnc1[C@H](c1ccc(Cl)c(Cl)c1)N1CCN(C/C=C/c2ccccc2)CC1 (racemic) [Compound 60, 1-{(3,4-dichlorophenyl)-[1-(2,6-dimethylphenyl)-1H-tetrazol-5-yl]methyl}-4-(3-phenylallyl)piperazine]	–	≤ 100	≤ 100	–	≤ 100	≤ 0.1	≤ 100	–	–
Cc1cccc(C)c1-n1nnnc1[C@H](c1ccc2ccccc2c1)N1CCN(C/C=C/c2ccccc2)CC1 (racemic) [Compound 62, 1-{[1-(2,6-dimethylphenyl)-1H-tetrazol-5-yl]naphthalen-2-ylmethyl}-4-(3-phenylallyl)piperazine]	–	≤ 100	≤ 100	≤ 0.1	≤ 100	≤ 0.1	≤ 100	–	–
Cc1cccc(C)c1-n1nnnc1[C@H](c1ccc(OCc2ccccc2)cc1)N1CCN(C/C=C/c2ccccc2)CC1 (racemic) [Compound 70, 1-{(4-benzyloxyphenyl)-[1-(2,6-dimethylphenyl)-1H-tetrazol-5-yl]methyl}-4-(3-phenylallyl)piperazine]	≤ 0.1	≤ 100	≤ 100	≤ 0.1	≤ 100	≤ 0.1	≤ 100	≤ 0.1	–
Cc1cccc(C)c1-n1nnnc1[C@H](c1ccc(Oc2ccccc2)cc1)N1CCN(C/C=C/c2ccccc2)CC1 (racemic) [Compound 76, 1-[[1-(2,6-dimethylphenyl)-1H-tetrazol-5-yl]-(4-phenoxyphenyl)methyl]-4-(3-phenylallyl)piperazine]	–	–	≤ 100	≤ 0.1	≤ 100	≤ 0.1	≤ 100	–	–
COc1cccc([C@@H](c2nnnn2-c2c(C)cccc2C)N2CCN(C/C=C/c3ccccc3)CC2)c1 (racemic) [Compound 77, 1-[[1-(2,6-dimethylphenyl)-1H-tetrazol-5-yl]-(3-methoxyphenyl)methyl]-4-(3-phenylallyl)piperazine]	–	≤ 100	≤ 100	≤ 0.1	≤ 100	≤ 0.1	≤ 100	–	–
Cc1cccc(C)c1-n1nnnc1[C@H](c1ccc(-n2ccnc2)cc1)N1CCN(C/C=C/c2ccccc2)CC1 (racemic) [Compound 78, 1-[[1-(2,6-dimethylphenyl)-1H-tetrazol-5-yl]-(4-imidazol-1-ylphenyl)methyl]-4-(3-phenylallyl)piperazine]	–	≤ 100	≤ 100	≤ 0.1	≤ 100	≤ 0.1	≤ 100	–	–
Cc1cccc(C)c1-n1nnnc1[C@H](c1ccc(-n2ccnc2)cc1)N1CCN(C/C=C/c2ccccc2)CC1 (stereo in doubt) [Compound 135, 1-[[1-(2,6-dimethylphenyl)-1H-tetrazol-5-yl]-(4-imidazol-1-ylphenyl)methyl]-4-(3-phenylallyl)piperazine]	–	≤ 100	≤ 100	–	≤ 100	–	≤ 100	–	–

Further lines, results first:

Ki (human MCH receptor; 100 nM or less list) [µM]	Ki (human MCH receptor; 100 μM or less list) [µM]	IC50 ([1]; 100 μM or less list) [µM]	IC50 ([2]; 100 nM or less list) [µM]	IC50 ([2]; 100 μM or less list) [µM]	Ki (rat MCH1 receptor [3]) [µM]	Ki (rat MCH1 receptor [4]; 100 μM or less list) [µM]	IC50 ([1]; 100 nM or less list) [µM]	Ki (rat MCH1 receptor [4]; 100 nM or less list) [µM]	Structure (SMILES)
≤ 0.1	≤ 100	≤ 100	≤ 0.1	≤ 100	≤ 0.1	≤ 100	–	–	Cc1cccc(C)c1-n1nnnc1[C@H](c1ccccc1)N1CCN(C/C=C/c2ccccc2)CC1 (racemic) [Compound 4, 1-{[1-(2,6-dimethyiphenyl)-1H-tetrazol-5-yl]phenylmethyl}-4-(3-phenylallyl)piperazine]
≤ 0.1	≤ 100	≤ 100	–	≤ 100	≤ 0.1	≤ 100	–	–	Cc1cccc(C)c1-n1nnnc1[C@H](c1cccc(F)c1)N1CCN(C/C=C/c2ccccc2)CC1 (racemic) [Compound 48, 1-[[1-(2,6-dimethyiphenyl)-1H-tetrazol-5-yl]-(3-fluorophenyl)methyl]-4-(3-phenylallyl)piperazine]
≤ 0.1	≤ 100	≤ 100	≤ 0.1	≤ 100	≤ 0.1	≤ 100	–	–	Cc1ccc([C@@H](c2nnnn2-c2c(C)cccc2C)N2CCN(C/C=C/c3ccccc3)CC2)cc1 (racemic) [Compound 55, 1-{[1-(2,6-dimethyiphenyl)-1H-tetrazol-5-yl]-p-tolylmethyl]-4-(3-phenylallyl)piperazine]
–	≤ 100	≤ 100	–	≤ 100	≤ 0.1	≤ 100	–	–	Cc1cccc(C)c1-n1nnnc1[C@H](c1ccc(Cl)cc1)N1CCN(C/C=C/c2ccccc2)CC1 (racemic) [Compound 57, 1-{(4-chlorophenyl)-[1-(2,6-dimethyiphenyl)-1H-tetrazol-5-yl]methyl}-4-(3-phenylallyl)piperazine]
–	≤ 100	≤ 100	–	≤ 100	≤ 0.1	≤ 100	–	–	Cc1cccc([C@@H](c2nnnn2-c2c(C)cccc2C)N2CCN(C/C=C/c3ccccc3)CC2)c1 (racemic) [Compound 61, 1-{[1-(2,6-dimethylphenyl)-1H-tetrazol-5-yl]-m-tolylmethyl}-4-(3-phenylallyl) piperazine]
–	–	≤ 100	≤ 0.1	≤ 100	≤ 0.1	≤ 100	–	–	Cc1cccc(C)c1-n1nnnc1[C@H](c1ccc(-c2ccccc2)cc1)N1CCN(C/C=C/c2ccccc2)CC1 (racemic) [Compound 64, 1-{biphenyl-4-yl-[1-(2,6-dimethylphenyl)-1H-tetrazol-5-yl]methyl}-4-(3-phenylallyl)piperazine]
≤ 0.1	≤ 100	≤ 100	–	≤ 100	≤ 0.1	≤ 100	≤ 0.1	–	Cc1cccc(C)c1-n1nnnc1[C@H](c1cccc(C#N)c1)N1CCN(C/C=C/c2ccccc2)CC1 (racemic) [Compound 79, 3-{[1-(2,6-dimethylphenyl)-1H-tetrazol-5-yl]-[4-(3-phenylallyl)piperazin-1-yl]methyl}benzonitrile]

From patent US7514438B2, “Melanin concentrating hormone receptor antagonist” (Amgen, Inc., priority 2003, dated 2009)
